# From ChEMBL document CHEMBL3244216, “Chemical modification of 1,4-diamino-1,4-dideoxy-3-O-(4-deoxy-4-propionamido-alpha-D-glucopyranosyl)-D-glucitol” (1978)
# The source made the active and inactive calls. The rule behind the calls is not given here.
# Key:
# Serratia [1] = assay: Antibacterial activity against pigmented Serratia 155 assessed as growth inhibition by agar dilution method; assay type: functional; design: unit not given here
# Staphylococcus aureus [2] = assay: Antibacterial activity against streptomycin, neomycin, kanamycin-resistant Staphylococcus aureus 2314 assessed as growth inhibition by agar dilution method; assay type: functional
# Pseudomonas aeruginosa [3] = assay: Antibacterial activity against kanamycin and gentamicin-resistant Pseudomonas aeruginosa 3033 assessed as growth inhibition by agar dilution method; assay type: functional
# Enterococcus faecalis [4] = assay: Antibacterial activity against Streptococcus faecalis 755 assessed as growth inhibition by agar dilution method; assay type: functional; design: unit not given here
# Serratia [5] = assay: Antibacterial activity against unpigmented Serratia 2840 assessed as growth inhibition by agar dilution method; assay type: functional; design: unit not given here
# Staphylococcus aureus [6] = assay: Antibacterial activity against drug-sensitive Staphylococcus aureus 2985 assessed as growth inhibition by agar dilution method; assay type: functional; design: unit not given here
# Escherichia coli [7] = assay: Antibacterial activity against drug-sensitive Escherichia coli 2482 assessed as growth inhibition by agar dilution method; assay type: functional; design: unit not given here
# Salmonella [8] = assay: Antibacterial activity against drug-sensitive Salmonella 1287 assessed as growth inhibition by agar dilution method; assay type: functional; design: unit not given here
# Pseudomonas aeruginosa [9] = assay: Antibacterial activity against Pseudomonas aeruginosa 2956 assessed as growth inhibition by agar dilution method; assay type: functional; design: unit not given here
# Brucella [10] = assay: Antibacterial activity against drug-sensitive Brucella 965 assessed as growth inhibition by agar dilution method; assay type: functional; design: unit not given here
# Staphylococcus aureus [11] = assay: Antibacterial activity against Staphylococcus aureus 210 assessed as growth inhibition by agar dilution method; assay type: functional; design: unit not given here
# Bacillus subtilis = assay: Antibacterial activity against drug-sensitive Bacillus subtilis 964 assessed as growth inhibition by agar dilution method; assay type: functional; design: unit not given here
# Proteus vulgaris [12] = assay: Antibacterial activity against drug-sensitive Proteus vulgaris 838 assessed as growth inhibition by agar dilution method; assay type: functional; design: unit not given here
# Escherichia coli [13] = assay: Antibacterial activity against drug-sensitive Escherichia coli 60 assessed as growth inhibition by agar dilution method; assay type: functional; design: unit not given here
# Erwinia = assay: Antibacterial activity against drug-sensitive Erwinia 1159 assessed as growth inhibition by agar dilution method; assay type: functional; design: unit not given here
# Brucella [14] = assay: Antibacterial activity against drug-sensitive Brucella 965 assessed as growth inhibition at => 200 ul/ml by agar dilution method; assay type: functional
# Pseudomonas aeruginosa [15] = assay: Antibacterial activity against Pseudomonas aeruginosa 2956 assessed as growth inhibition at => 200 ul/ml by agar dilution method; assay type: functional, organism-based
# Klebsiella [16] = assay: Antibacterial activity against drug-sensitive Klebsiella 2921 assessed as growth inhibition by agar dilution method; assay type: functional
# Klebsiella [17] = assay: Antibacterial activity against drug-sensitive Klebsiella 2921 assessed as growth inhibition at => 200 ul/ml by agar dilution method; assay type: functional, organism-based
# Proteus vulgaris [18] = assay: Antibacterial activity against drug-sensitive Proteus vulgaris 838 assessed as growth inhibition at => 100 ul/ml by agar dilution method; assay type: functional, organism-based
# Enterococcus faecalis [19] = assay: Antibacterial activity against Streptococcus faecalis 755 assessed as growth inhibition at => 200 ul/ml by agar dilution method; assay type: functional, organism-based
# Pseudomonas aeruginosa [20] = assay: Antibacterial activity against kanamycin and gentamicin-resistant Pseudomonas aeruginosa 3033 assessed as growth inhibition at => 200 ul/ml by agar dilution method; assay type: functional, organism-based
# Staphylococcus aureus [21] = assay: Antibacterial activity against streptomycin, neomycin, kanamycin-resistant Staphylococcus aureus 2314 assessed as growth inhibition at => 200 ul/ml by agar dilution method; assay type: functional, organism-based
# Proteus vulgaris [22] = assay: Antibacterial activity against drug-sensitive Proteus vulgaris 838 assessed as growth inhibition at => 200 ul/ml by agar dilution method; assay type: functional, organism-based
# Salmonella [23] = assay: Antibacterial activity against drug-sensitive Salmonella 1287 assessed as growth inhibition at => 200 ul/ml by agar dilution method; assay type: functional, organism-based
# Escherichia coli [24] = assay: Antibacterial activity against streptomycin, neomycin, kanamycin, gentamicin-resistant Escherichia coli 2964 assessed as growth inhibition by agar dilution method; assay type: functional
Compound,MIC (Serratia [1]),MIC (Staphylococcus aureus [2]) [µg/mL],MIC (Pseudomonas aeruginosa [3]) [µg/mL],MIC (Enterococcus faecalis [4]),MIC (Serratia [5]),MIC (Staphylococcus aureus [6]),MIC (Escherichia coli [7]),MIC (Salmonella [8]),MIC (Pseudomonas aeruginosa [9]),MIC (Brucella [10]),MIC (Staphylococcus aureus [11]),MIC (Bacillus subtilis),MIC (Proteus vulgaris [12]),MIC (Escherichia coli [13]),MIC (Erwinia),growth inhibition (GI) (Pseudomonas aeruginosa [15]),MIC (Klebsiella [16]) [uL/ml],growth inhibition (GI) (Enterococcus faecalis [19]),further results
CCC(=O)N[C@H]1[C@H](O)[C@@H](O)[C@@H](O[C@@H]([C@H](N)[C@H](O)CO)[C@@H](O)CN)O[C@@H]1CO,>200,200,100,200,200,100,50,<3.1,50,100,50,50,100,50,<3.1,,,,
CC(=O)N[C@H]1[C@H](O)[C@@H](O)[C@@H](O[C@@H]([C@H](N)[C@H](O)CO)[C@@H](O)CN)O[C@@H]1CO,>200,> 200,> 200,>200,>200,200,100,200,,200,200,100,200,200,100,,,,growth inhibition (GI) (Brucella [14]): inactive
CCCN[C@H]1[C@H](O)[C@@H](O)[C@@H](O[C@@H]([C@H](N)[C@H](O)CO)[C@@H](O)CN)O[C@@H]1CO,,100,> 200,200,200,50,200,100,200,200,50,50,200,200,,inactive,200,inactive,growth inhibition (GI) (Klebsiella [17]): inactive; growth inhibition (GI) (Proteus vulgaris [18]): inactive
CCCC(=O)N[C@H]1[C@H](O)[C@@H](O)[C@@H](O[C@@H]([C@H](N)[C@H](O)CO)[C@@H](O)CN)O[C@@H]1CO,>200,,,200,200,200,200,200,200,,200,100,200,200,>200,inactive,200,inactive,growth inhibition (GI) (Pseudomonas aeruginosa [20]): inactive; growth inhibition (GI) (Staphylococcus aureus [21]): inactive; growth inhibition (GI) (Proteus vulgaris [22]): inactive; growth inhibition (GI) (Salmonella [23]): inactive
CCC(=O)N[C@H]1[C@H](O)[C@@H](O)[C@@H](O[C@@H]([C@H](N)[C@H](O)CO)[C@@H](O)CN)O[C@@H]1CCl,200,200,,200,100,50,100,50,100,100,50,50,200,100,>25,,50,,
NC[C@H]1O[C@H](O[C@H]2[C@H](O)[C@@H](O[C@H]3O[C@H](CO)[C@@H](O)[C@H](N)[C@H]3O)[C@H](N)C[C@@H]2N)[C@H](O)[C@@H](O)[C@@H]1O [KANAMYCIN],,> 100,100,,,,,,,,,,,,,,,,MIC (Escherichia coli [24]): 100 µg/mL
